The values that follow come from patent publication US10669266B2, “Oxadiazole inhibitors of HIPK2 for treating kidney fibrosis” (ICAHN SCHOOL OF MEDICINE AT MOUNT SINAI, priority 2017, dated 2020).

For the assay, the system named is Tg26 mice. Nature of the assay: Tg26 (HIV-1 transgenic) mouse model of kidney disease. The assay is classed as in vivo. As for the experimental part: Tg26 mice of FVB/N genetic background bearing a defective HIV-1 provirus lacking gag-pol have been described by Feng et al. [J Am Soc Nephrol 2009; 20: 2138-2146]. Six-week old heterozygous Tg26 mice were used in this study. Wildtype littermates were used as controls. Mice in the treatment group received test compound dissolved in DMSO and diluted in saline (5% DMSO) by oral gavage at a dose of 200 μg/kg body weight per day. Mice in the control group received the same volume of 5% DMSO/saline vehicle. The mice were treated for a total of 4 weeks and sacrificed at age of 10 weeks. The UUO model was established in male C57BL/6 mice (The Jackson Laboratory) by ligation of the left ureter as described by Jin et al. [Lab Invest, 93: 801-811, 2013]. After the operation, UUO mice were randomly divided into control group (vehicle) and treatment group. Mice were fed with test compound by oral gavage at a dose of 200 μg/kg body weight per day for 7 days.
Immunofluorescence staining was conducted on paraffin-embedded kidney sections using standard procedures. Briefly, deparaffinized sections were incubated with primary antibody against collagen I (1:50, #NB6-00-4-8, Novus) at 4° C. overnight. After being washed, sections were incubated with Alexa Fluor488-labelled second antibody (1:200, #A11034, Invitrogen) at room temperature for 1 hour in darkness. After nuclei were stained with 4′, 6-diamidino-2-phenyllindole (DAPI) slides were mounted using Aqua PolyMount (Polysciences, Inc) and images were acquired using AxioVision IIe microscope with a digital camera.
Renal fibrosis was evaluated histologically by Sirius red staining on paraffin slides of mice kidney tissues according to the manufacturer's instructions (#ab150681, Abcam). Masson's trichrome staining on paraffin slices of mice kidney tissue was performed according to manufacturer's instructions (#87019, Thermo Scientific).
Tg26 mice are known to develop proteinuria starting from 4 weeks of age and the proteinuria peaks usually around 8-10 weeks of age. Tg26 mice also develop significant glomerulosclerosis and renal failure by 8-10 weeks of age. To determine whether compounds of the invention could reverse kidney injury that has been already developed, we started to treat Tg26 mice with either vehicle or Example 1 from age of 6 weeks for a total of 4 weeks, and the mice were sacrificed at age of 10 weeks.

Setting [1] is: Tg26 mice treated from age of 6 weeks for 4 weeks, vs vehicle.
[2] abbreviates: Tg26 mice, post-treatment (week 4), 200 μg/kg/day oral gavage.
Where [3] appears, read: Tg26 mice, pre-treatment (week 0).
The mark [4] stands for this setting: Wildtype mice, post-treatment (week 4), 200 μg/kg/day oral gavage.
Setting [5] is: Wildtype mice, pre-treatment (week 0).

`COc1ccc2cc(-c3nc(-c4ccc(Br)cc4)no3)cnc2c1` [Example 1, 3-(4-Bromophenyl)-5-(7-methoxyquinolin-3-yl)-1,2,4-oxadiazole]: where the note is “Tg26 mice”, the “Smad3 phosphorylation and α-SMA expression” value is “significantly reduced”; the “kidney injury and renal fibrosis (picrosirius red, Masson's trichrome, Collagen I immunofluorescence)” value is “attenuated kidney injury and renal fibrosis”. Under setting [1], the proteinuria entry is “significantly reduced proteinuria” and the renal function entry is recorded as “improved renal function”. Also, under setting [2], the BUN worked out at 22.404 ± 4.678 mg/dL and the “Urinary Albumin:Creatinine Ratio” value worked out at 19.917 ± 5.838 µg/µg. For the same compound, under setting [3], the BUN was 23.799 ± 1.990 mg/dL and the “Urinary Albumin:Creatinine Ratio” value stood at 23.321 ± 12.339 µg/µg. Also, under setting [4], the BUN came to 18.875 ± 3.485 mg/dL and the “Urinary Albumin:Creatinine Ratio” value turned out to be 0.036 ± 0.008 µg/µg. Besides, under setting [5], the BUN is reported as 21.091 ± 3.009 mg/dL and the “Urinary Albumin:Creatinine Ratio” value was 0.033 ± 0.007 µg/µg.
